# Test results: patent US10351559B2, “Maleate salts of a B-RAF kinase inhibitor, crystalline forms, methods of preparation, and uses therefore” (BeiGene, Ltd., priority 2015, dated 2019)
# Structures can show the parent of a compound that is named as a salt. Where two headings read alike, the source gives them in different places.
# What was measured:
# [1] = pharmacokinetic comparison of sesqui-maleate and free base, oral; type: in vivo, Beagle dogs; details: dogs
# Description: Drugs and reagents: Crystalline Form A* of Compound 1 Sesqui-Maleate with particle sizes of D90=4.1 um, D10=1.5 um, D50=2.4 um after micronization. The material content (purity) was not less than 98.0%.
# Experiment animals: Beagle dogs, male and female.
# Pharmaceutical preparation: Weigh the appropriate amount of each substance and disperse in 0.5% sodium carboxymethyl cellulose (for the free base of Compound 1) or 0.5% methyl cellulose solution (for Compound 1 Sesqui-Maleate). Prepare a suspension at the desired concentration of Compound 1. All the doses and concentrations of Compound 1 were calculated with free base in this study.
# Administration and sample collection: The dosing solutions will be freshly prepared prior to dose administration. The actual body weights and actual volume injected will be recorded accordingly. The dogs were fasted overnight and were allowed to intake food four hours after dosing. Each suspension was administrated orally to dogs at a dose ranged from 0.5 to 15 mg/kg. Blood samples (˜1.0 mL) will be collected at pre-dose and at different times up to 36 hours postdosing via cephalic vein plexus. Whole blood will be processed by centrifugation and plasma samples will be collected and kept at freezer prior to analysis. Plasma samples were processed by protein precipitation. Concentrations of Compound 1 in the plasma samples were determined using a validated liquid chromatography-tandem mass spectrometry (LC-MS/MS) method. The plasma concentration-time data were analyzed using a non-compartmental model using Pharsight WinNonlin.
# [2] = test system: p-ERK in Calu-6 K-RAS mutant non-small cell lung adenocarcinoma xenograft models; experiment: PD study, p-ERK in tumor tissue, combination; type: in vivo, mice; details: Calu-6 xenograft, with MEK inhibitor AZD6244
# Experimental: (§1) Human cancer cells were inoculated subcutaneously in the right axilla region of BALB/C nude mice to generate tumor xenografts. On the day of implantation, the cell culture medium was replaced with fresh medium. Three hours later, the media was removed and the cells were collected and re-suspended in cold (4° C.) PBS prior to inoculation. The right axilla region of each mouse was cleaned with 70% ethanol prior to cell inoculation. Each animal was injected subcutaneously with desired cells in 200 μl of cell suspension in the right front flank via a 26-gauge needle. After implantation tumor volumes were measured twice weekly in two dimensions using a calliper. Tumor volume was calculated using the formula: V=0.5×(a×b^2) where a and b are the long and short diameters of the tumor, respectively.
# (§2) For PD study, when the average tumor size reaches 140-900 mm^3, animals were assigned into desired number of groups with 4 mice per group using a stratified randomization procedure. The groups consisted of a control group (no drug treatment), and different dose levels of Crystalline Form A* of Compound 1 Sesqui-Maleate treatment groups (ranged from 1-20 mg/kg). All doses were based on free-base weight. Drugs were administered by oral gavage once (qd) or twice (bid) daily. […] Body weight was assessed immediately before dosing and the volume dosed was adjusted accordingly. […]
# [3] = short-term stability study (1 week, 60° C. and 40° C./75% RH); type: physicochemical; details: for TRS %: sesqui-maleate salt
# Experimental: Weighed about 2 mg (For XRPD: 10 mg) of each of the above salts in a 40 mL glass vial, separately. The free base form was used as control. The closed samples were capped and sealed with parafilm, while the opened samples were covered by aluminum foil with pinhole. All the samples were stored in stability chamber or dry oven at the corresponding conditions (60° C. and 40° C./75% RH) for 1 week.
# Colo-205 cells = experiment: CellTiter-Glo luminescent cell viability assay; type: cell-based; details: Homo sapiens, 72 h; Colo-205, BRAF V600E, 3-day exposure, N=2; read-out: Compound 1 EC50 (mean ± SD)
# Experimental: (§3) A375, Sk-Mel-28, HT29, Colo205, A431, and HCC827 cell lines were purchased from American Type Culture Collection. All the cell lines used in the cellular assays were cultured in the designated medium supplemented with 10% fetal bovine serum (FBS, Thermo Scientific), 100 units/mL penicillin (Gibco), 0.1 mg/mL streptomycin (Gibco) and in a humidified 37° C. environment with 5% CO2. Cell lines were reinstated from frozen stocks laid down within three passages from the original cells purchased and passaged no more than 30 times.
# (§4) The growth-inhibitory activity of compounds in a panel of melanoma, colon, breast and lung cancer cells was determined using CellTiter-Glo luminescent cell viability assay (Promega). The number of cells seeded per well of a 96-well plate was optimized for each cell line to ensure logarithmic growth over the 3 days treatment period. Cells were left to attach for 16 hours and then treated with a 10-point dilution series in duplicate. Following a 3-day exposure to the compound, a volume of CellTiter-Glo reagent equal to the volume of cell culture medium present in each well was added. Mixture was placed on an orbital shaker for 2 minutes to allow cell lysing, followed by 10 minutes incubation at room temperature to allow development and stabilization of luminescent signal. Luminescent signal was measured using PHERAstar FS reader (BMG Labtech). EC50 values for cell viability were determined with GraphPad Prism software.
# HT-29 cells = experiment: CellTiter-Glo luminescent cell viability assay; type: cell-based; details: Homo sapiens, 72 h; HT-29, BRAF V600E, 3-day exposure, N=2; read-out: Compound 1 EC50 (mean ± SD)
# Experimental: as §3, §4
# Sk-Mel-28 cells = experiment: CellTiter-Glo luminescent cell viability assay; type: cell-based; details: Homo sapiens, 72 h; Sk-Mel-28, BRAF V600E, 3-day exposure, N=2; read-out: Compound 1 EC50 (mean ± SD)
# Experimental: as §3, §4
# A375 cells = experiment: CellTiter-Glo luminescent cell viability assay; type: cell-based; details: Homo sapiens, A-375, 72 h; A375, BRAF V600E, 3-day exposure, N=2; read-out: Compound 1 EC50 (mean ± SD)
# Experimental: as §3, §4
# [4] = test system: ERK1/2 phosphorylation in A375 xenografts; experiment: PD study, p-ERK1/2 in tumor tissue (AlphaScreen SureFire); type: in vivo; details: A375 xenografts in mice, oral administration
# Experimental: as §1, §2
# [5] = oral dose 1 mg/kg (free base), listed as Sesqui-Maleate (Micronized Crystalline Form A*), sesqui-maleate salt, 1 mg/kg
compound,measurement,setting,value
"O=C1CCc2c(Oc3ccc4c(c3)[C@@H]3[C@H](O4)[C@H]3c3nc4ccc(C(F)(F)F)cc4[nH]3)ccnc2N1 [5-(((1R,1aS,6bR)-1-(6-(trifluoromethyl)-1H-benzo[d]imidazol-2-yl)-1a,6b-dihydro-1H-cyclopropa[b]benzofuran-5-yl)oxy)-3,4-dihydro-1,8-naphthyridin-2(1H)-one sesqui-maleate salt]",Cmax,"[1]; both sexes, beagle, dog, plasma, po, 0.5 mg/kg, oral dose 0.5 mg/kg, read-out: Cmax",342 ng/mL
same,Cmax,"[1]; both sexes, beagle, dog, plasma, po, 1.5 mg/kg, oral dose 1.5 mg/kg, read-out: Cmax",861 ng/mL
same,Cmax,"[1]; both sexes, beagle, dog, plasma, po, 4.5 mg/kg, oral dose 4.5 mg/kg, read-out: Cmax",2880 ng/mL
same,Cmax,"[1]; both sexes, beagle, dog, plasma, po, 15 mg/kg, oral dose 15 mg/kg, read-out: Cmax",5310 ng/mL
same,AUC0-inf relative to the free base form,[1]; oral,2-3 times
same,Cmax relative to the free base form,[1]; oral,2-3 times
same,Dose-Normalized AUC0-inf,[1]; oral dose 0.5 mg/kg,4178 ng·kg·h/mL/mg
same,Cmax,[1]; [5],607 ng/mL
same,Dose-Normalized AUC0-inf,[1]; [5],2960 ng·kg·h/mL/mg
same,Dose-Normalized AUC0-inf,[1]; oral dose 1.5 mg/kg,3726 ng·kg·h/mL/mg
same,Dose-Normalized AUC0-inf,[1]; oral dose 4.5 mg/kg,4390 ng·kg·h/mL/mg
same,Dose-Normalized AUC0-inf,[1]; oral dose 15 mg/kg,2841 ng·kg·h/mL/mg
same,effect on inhibiting p-ERK in combination,[2],strong synergistic effect
same,TRS %,[3]; 0 day,0.08%
same,TRS %,"[3]; 40° C./75% RH, 1 week",0.10%
same,TRS %,"[3]; 60° C., 1 week",0.17%
same,chemical degradation,[3]; after one week at 60° C. and 40° C./75% RH,did not show degradations
same,appearance by visual observation,[3]; both conditions after 1 week,no change
same,EC50,Colo-205 cells,147 ± 0.6 nM
same,EC50,HT-29 cells,138 ± 13 nM
same,EC50,Sk-Mel-28 cells,251 ± 54 nM
same,EC50,A375 cells,137 ± 0.5 nM
same,inhibition of ERK1/2 phosphorylation in tumor,[4],time-dependent and dose-dependent inhibition
